Assay results taken from PMC4159287, “Characterization of a Soluble Phosphatidic Acid Phosphatase in Bitter Melon (Momordica charantia)” (PLoS ONE, 2014).

Test system: T1, soluble phosphatidic acid phosphatase (PAP), Mg2+-independent, partially purified from bitter melon cotyledons
T1 construct: many copurified proteins, no PAP peptide found by LC/MS/MS
Assay: Pi release, ammonium molybdate-acetone-acid, A355
Format: biochemical, Momordica charantia
Settings: pH 6.5, 53°C, 0.3 mM MgCl2, 50 mM imidazole, DPA 0-500 µM, sigmoidal curve

- Km: 595 µM
Structure (SMILES): CCCCCCCC/C=C\CCCCCCCC(=O)OC[C@H](COP(=O)(O)O)OC(=O)CCCCCCC/C=C\CCCCCCCC [DPA, 1,2-dioleoyl-sn-glycero-3-phosphate]
